Assay results from publication PMC5823474, “A natural agonist of mosquito TRPA1 from the medicinal plant Cinnamosma fragrans that is toxic, antifeedant, and repellent to the yellow fever mosquito Aedes aegypti” (PLoS Neglected Tropical Diseases, 2018).

Biological target: T1, AgTRPA1 (Transient Receptor Potential A1) (Anopheles gambiae, UniProt B3G3I7)
T1 construct: AgTRPA1 cRNA expressed in Xenopus laevis oocytes
T1 sequence (B3G3I7 1-1248): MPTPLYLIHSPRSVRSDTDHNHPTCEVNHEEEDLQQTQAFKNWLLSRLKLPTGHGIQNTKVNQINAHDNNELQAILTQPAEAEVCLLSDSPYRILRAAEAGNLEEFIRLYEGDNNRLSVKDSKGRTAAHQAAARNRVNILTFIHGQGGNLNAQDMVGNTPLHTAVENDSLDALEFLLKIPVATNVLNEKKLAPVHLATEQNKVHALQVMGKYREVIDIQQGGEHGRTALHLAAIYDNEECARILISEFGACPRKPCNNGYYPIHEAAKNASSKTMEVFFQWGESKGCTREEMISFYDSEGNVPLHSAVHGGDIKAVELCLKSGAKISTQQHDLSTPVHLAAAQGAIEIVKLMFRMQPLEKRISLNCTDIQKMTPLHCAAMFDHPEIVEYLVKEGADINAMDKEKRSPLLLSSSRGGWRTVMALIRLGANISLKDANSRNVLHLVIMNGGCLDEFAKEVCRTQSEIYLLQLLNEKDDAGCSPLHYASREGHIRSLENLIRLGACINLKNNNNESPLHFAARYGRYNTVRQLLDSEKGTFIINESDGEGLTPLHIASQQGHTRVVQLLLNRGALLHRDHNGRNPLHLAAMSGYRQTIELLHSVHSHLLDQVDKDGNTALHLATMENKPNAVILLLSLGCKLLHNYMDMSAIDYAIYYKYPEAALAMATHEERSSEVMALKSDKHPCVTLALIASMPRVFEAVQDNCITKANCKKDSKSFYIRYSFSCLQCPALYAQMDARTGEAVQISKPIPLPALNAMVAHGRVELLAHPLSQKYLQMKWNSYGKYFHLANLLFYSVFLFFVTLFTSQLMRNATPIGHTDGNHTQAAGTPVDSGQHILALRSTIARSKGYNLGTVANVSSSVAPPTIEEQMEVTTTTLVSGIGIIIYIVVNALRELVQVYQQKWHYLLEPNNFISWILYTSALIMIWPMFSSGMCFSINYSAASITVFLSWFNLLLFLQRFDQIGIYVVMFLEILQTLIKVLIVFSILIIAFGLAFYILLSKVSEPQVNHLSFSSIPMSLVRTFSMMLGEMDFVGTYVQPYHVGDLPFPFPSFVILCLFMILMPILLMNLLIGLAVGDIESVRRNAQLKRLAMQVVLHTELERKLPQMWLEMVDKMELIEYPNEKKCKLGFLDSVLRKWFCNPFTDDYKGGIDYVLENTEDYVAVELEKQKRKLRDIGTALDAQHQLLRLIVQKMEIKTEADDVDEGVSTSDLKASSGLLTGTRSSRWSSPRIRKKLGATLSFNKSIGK
Test: two-electrode voltage clamp in Xenopus oocytes, weaker agonist at […]; no response in H2O-injected oocytes
Assay type: cell-based

With `CC(=O)O[C@@H]1C=C(C2O[C@@H]3O[C@@H](O)C4=C[C@@H](OC(C)=O)[C@H]5C(C)(C)CCC[C@]5(C)[C@]43O2)[C@](O)(C=O)[C@@]2(C)CCCC(C)(C)[C@H]12` (stereo partly shown) [CFRAG, cinnafragrin A] the “two-electrode voltage clamp in Xenopus oocytes, weaker agonist at 10 μM; no resp” value was “CFRAG produced a similar response, but the peak Im elicited by CDIAL”.
